# Results: patent US9328360B2, “Conversion of glycerol to 1,3-propanediol under haloalkaline conditions” (The Curators of the University of Missouri, priority 2013, dated 2016)
# Experiments:
# Format in all cases: cell-based, Halanaerobium hydrogeniformans
# H. hydrogeniformans [1] = experiment: Tolerance of H. hydrogeniformans to 1,3-propanediol (growth by turbidity); conditions: for Growth: 30 mM glycerol
# Protocol: (§1) The tolerance of H. hydrogeniformans to increasing concentrations of 1,3-propanediol was examined. Anaerobic cultures were prepared in 160 mL serum bottles. The medium was prepared by boiling to degas under a N2 blanket. As the medium cooled, reductant stock mix was added to the media that contained 0.75 g Na2S and 0.6 g cysteine per liter. Once the media was cooled, the flasks were transferred into a Coy anaerobic glove bag where the 50 mL of media was dispensed into 160 mL serum bottles filled and autoclaved (121° C., 20 min). After autoclaving, the headspace gas was exchanged for 80% N2/20% CO2 mixture. The bottles then were inoculated with a 10% inoculum from previous stock cultures and amended with 30 mM glycerol. Sterilized 1,3-propanediol was added to the serum bottles to achieve 10, 30, 60, 120, 380, and 750 mM. Growth was examined by turbidity readings taken at […].
# H. hydrogeniformans [2] = experiment: Requirement of B12: 1,3-propanediol production from 30 mM glycerol over a vitamin B12 gradient (HPLC); conditions: for Percent mole/mole conversion of glycerol to 1,3-propanediol / 1,3-propanediol produced: 30 mM glycerol
# Protocol: Anaerobic cultures were prepared in 160 mL serum bottles. The medium was prepared by boiling to degas under a N2 blanket. As the medium cooled, reductant stock mix was added to the media that contained 0.75 g Na2S and 0.6 g cysteine per liter. Once the media was cooled, the flasks were transferred into a Coy anaerobic glove bag where the 50 mL of media was dispensed into 160 mL serum bottles filled and autoclaved (121° C., 20 min). After autoclaving, the headspace gas was exchanged for 80% N2/20% CO2 mixture. The bottles then were inoculated with a 10% inoculum from previous stock cultures. 30 mM glycerol was added. Vitamin B12 supplementation from anaerobic, filter-sterilized stocks were added right before inoculation at 0 μg/L, 25 μg/L, 50 μg/L, 75 μg/L, and 100 μg/L.
# Samples were taken every 24 hours. 5 mL syringes were degassed with N2/CO2 mix, and 1 mL of culture sample was removed for each of the sample periods. The sample was placed in a 1.5 mL Eppendorf tube, and centrifuged for 5 min at 13,000×g. The supernatant was decanted into another 1.5 mL Eppendorf tube, and frozen for HPLC analysis.
# For HPLC analysis, filter sterilized samples ([…] PTFE filters) were injected onto a 300×7.8 mm Aminex HPX-87H column (BioRad, Hercules, Calif.) maintained at 50° C. The mobile phase was 2.5 mM H2SO4 maintained at a constant flow rate of 0.6 ml/min and at approximately 2.2 MPa. Detection was done with both a UV 231 (at 210 nm) and refractive index monitor.
# H. hydrogeniformans [3] = experiment: Tolerance of H. hydrogeniformans to glycerol (growth by turbidity); conditions: 7% NaCl, pH 11
# Protocol: as §1, with “to” for “to increasing”, “glycerol” for “1,3-propanediol”, “cultures.” for “cultures and amended with 30 mM glycerol.”, “7.5, 15,” for “10,”, “240, 480, 960,” for “380,”, “1920” for “750”
molecule,measurement,setting,value
"OCCCO [1,3-propanediol]",Growth,"H. hydrogeniformans [1]; 1,3-propanediol 10 mM",capable of growth
same,Growth,"H. hydrogeniformans [1]; 1,3-propanediol 30 mM",capable of growth
same,Growth,"H. hydrogeniformans [1]; 1,3-propanediol 60 mM",capable of growth
same,Growth,"H. hydrogeniformans [1]; 1,3-propanediol 120 mM",capable of growth
same,Growth,"H. hydrogeniformans [1]; 1,3-propanediol 380 mM",capable of growth
same,"1,3-propanediol concentration at which growth is possible","H. hydrogeniformans [1]; 7% NaCl, pH 11",380 mM
same,"1,3-propanediol concentration tolerated",H. hydrogeniformans [1]; in addition to 7% (w/v) and pH 11,at least 0.38 M
"OCC(O)CO [Glycerol, glycerol]","Percent mole/mole conversion of glycerol to 1,3-propanediol",H. hydrogeniformans [2]; B12 amendment 0 μg/L,"31.5 % mol 1,3-propandiol/mol glycerol"
same,conversion rate,H. hydrogeniformans [2]; absence of B12,31%
same,"1,3-propanediol produced",H. hydrogeniformans [2]; no vitamin B12 provided,approximately 8.5 mM
same,Growth,H. hydrogeniformans [3]; Glycerol 7.5 mM,capable of growth
same,Growth,H. hydrogeniformans [3]; Glycerol 15 mM,capable of growth
same,Growth,H. hydrogeniformans [3]; Glycerol 30 mM,capable of growth
same,Growth,H. hydrogeniformans [3]; Glycerol 60 mM,capable of growth
same,Growth,H. hydrogeniformans [3]; Glycerol 120 mM,capable of growth
same,Growth,H. hydrogeniformans [3]; Glycerol 240 mM,capable of growth
same,Growth,H. hydrogeniformans [3]; Glycerol 480 mM,capable of growth
same,Growth,H. hydrogeniformans [3]; Glycerol 960 mM,capable of growth
same,Growth,H. hydrogeniformans [3]; Glycerol 1920 mM,capable of growth
vitamin B12,"Percent mole/mole conversion of glycerol to 1,3-propanediol",H. hydrogeniformans [2]; B12 amendment 25 μg/L,"59.1 % mol 1,3-propandiol/mol glycerol"
same,"Percent mole/mole conversion of glycerol to 1,3-propanediol",H. hydrogeniformans [2]; B12 amendment 50 μg/L,"60.3 % mol 1,3-propandiol/mol glycerol"
same,"Percent mole/mole conversion of glycerol to 1,3-propanediol",H. hydrogeniformans [2]; B12 amendment 75 μg/L,"60.1 % mol 1,3-propandiol/mol glycerol"
same,"Percent mole/mole conversion of glycerol to 1,3-propanediol",H. hydrogeniformans [2]; B12 amendment 100 μg/L,"60.2 % mol 1,3-propandiol/mol glycerol"
same,conversion rate,H. hydrogeniformans [2]; B12 supplementation >25 μg/L,approximately 60%
same,"1,3-propanediol produced","H. hydrogeniformans [2]; culture amended with 25, 50, 75, or 100 μg/L vitamin B12",Approximately 16.5 mM
